# Experimental data taken from US10770169B2, “Method of providing a treatment to a subject based on a dynamic pathway map” (THE REGENTS OF THE UNIVERSITY OF CALIFORNIA, priority 2010, dated 2020).
# Where two headings read alike, the source gives them in different places.
# What was measured:
# [1] = test system: panel of 55 breast cancer cell lines; assay: Cell growth inhibition assay (Cell Titer Glo, 72 h, 9 doses; GI50, TGI, LC50); assay type: cell-based, human; settings: Homo sapiens, read-out: GI50 (converted)
# [2] = test system: luminal, basal, claudin-low and ERBB2AMP breast cancer cell lines; assay: Associations of clinically relevant subtypes and response (non-parametric ANOVA or t-test on GI50 ranks); assay type: cell-based, human; settings: Table 6; most sensitive subtype, FDR p<0.20
# Summary of the method: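 Significance was set at FDR p<0.20 after combining p-values across three test sets. Subtype–response associations came from rank-based non-parametric ANOVA or t-tests on GI50. For three-class comparisons, post-hoc tests of each group against the rest identified the most sensitive group, with FDR correction.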
# [3] = AU565, AU565 cell line, censored GI50 values
# [4] = BT-474, BT474 cell line, censored GI50 values
# [5] = BT-549, BT549 cell line, censored GI50 values
# [6] = HCC70, HCC70 cell line, censored GI50 values
# [7] = HCC202, HCC202 cell line, censored GI50 values
# [8] = HCC1187, HCC1187 cell line, censored GI50 values
# [9] = HCC1395, HCC1395 cell line, censored GI50 values
# [10] = HCC1419, HCC1419 cell line, censored GI50 values
# [11] = HCC1428, HCC1428 cell line, censored GI50 values
# [12] = HCC1500, HCC1500 cell line, censored GI50 values
# [13] = HCC1806, HCC1806 cell line, censored GI50 values
# [14] = HCC1937, HCC1937 cell line, censored GI50 values
# [15] = HCC1954, HCC1954 cell line, censored GI50 values
# [16] = HCC2185 cell line, censored GI50 values
# [17] = HCC3153 cell line, censored GI50 values
# [18] = LY2 cell line, censored GI50 values
# [19] = MDA-MB-175-VII, MDAMB175VII cell line, censored GI50 values
# [20] = MDA-MB-231, MDAMB231 cell line, censored GI50 values
# [21] = MDA-MB-468, MDAMB468 cell line, censored GI50 values
# [22] = SUM149PT, SUM149PT cell line, censored GI50 values
# [23] = SUM1315MO2, SUM1315MO2 cell line, censored GI50 values
# [24] = SUM-159-PT, SUM159PT cell line, censored GI50 values
smiles,measurement,setting,value
CCNCCCNC/C=C\CNCCCNCC [CGC-11047],GI50,"[1]; 600MPE cell line, censored GI50 values",468 µM
same,GI50,[1]; [3],288 µM
same,GI50,"[1]; AU565, cell line AU565",288 µM
same,GI50,[1]; [4],269 µM
same,GI50,"[1]; BT-474, cell line BT474",269 µM
same,GI50,"[1]; BT-483, BT483 cell line, censored GI50 values",589 µM
same,GI50,"[1]; BT-483, cell line BT483",589 µM
same,GI50,[1]; [5],29.5 µM
same,GI50,"[1]; BT-549, cell line BT549",29.5 µM
same,GI50,"[1]; CAMA-1, CAMA1 cell line, censored GI50 values",1260 µM
same,GI50,"[1]; CAMA-1, cell line CAMA1",1260 µM
same,GI50,"[1]; HCC38, HCC38 cell line, censored GI50 values",11.7 µM
same,GI50,"[1]; HCC38, cell line HCC38",11.7 µM
same,GI50,[1]; [6],2.09 µM
same,GI50,"[1]; HCC70, cell line HCC70",2.09 µM
same,GI50,[1]; [7],14.5 µM
same,GI50,"[1]; HCC202, cell line HCC202",14.5 µM
same,GI50,"[1]; HCC1143, HCC1143 cell line, censored GI50 values",112 µM
same,GI50,"[1]; HCC1143, cell line HCC1143",112 µM
same,GI50,[1]; [8],1550 µM
same,GI50,"[1]; HCC1187, cell line HCC1187",1550 µM
same,GI50,[1]; [9],87.1 µM
same,GI50,"[1]; HCC1395, cell line HCC1395",87.1 µM
same,GI50,[1]; [10],14.1 µM
same,GI50,"[1]; HCC1419, cell line HCC1419",14.1 µM
same,GI50,[1]; [11],204 µM
same,GI50,"[1]; HCC1428, cell line HCC1428",204 µM
same,GI50,[1]; [12],63.1 µM
same,GI50,"[1]; HCC1500, cell line HCC1500",63.1 µM
same,GI50,[1]; [13],74.1 µM
same,GI50,"[1]; HCC1806, cell line HCC1806",74.1 µM
same,GI50,[1]; [14],6.92 µM
same,GI50,"[1]; HCC1937, cell line HCC1937",6.92 µM
same,GI50,[1]; [15],0.692 µM
same,GI50,"[1]; HCC1954, cell line HCC1954",0.692 µM
same,GI50,[1]; [16],407 µM
same,GI50,[1]; [17],5.75 µM
same,GI50,[1]; [18],1510 µM
same,GI50,"[1]; MCF7, MCF7 cell line, censored GI50 values",85.1 µM
same,GI50,"[1]; MCF7, cell line MCF7",85.1 µM
same,GI50,"[1]; MDA-MB-134-VI, MDAMB134VI cell line, censored GI50 values",1070 µM
same,GI50,"[1]; MDA-MB-157, MDAMB157 cell line, censored GI50 values",1020 µM
same,GI50,"[1]; MDA-MB-157, cell line MDAMB157",1020 µM
same,GI50,[1]; [19],617 µM
same,GI50,[1]; [20],2510 µM
same,GI50,"[1]; MDA-MB-231, cell line MDAMB231",2510 µM
same,GI50,"[1]; MDA-MB-361, MDAMB361 cell line, censored GI50 values",708 µM
same,GI50,"[1]; MDA-MB-361, cell line MDAMB361",708 µM
same,GI50,"[1]; MDA-MB-415, MDAMB415 cell line, censored GI50 values",75.9 µM
same,GI50,"[1]; MDA-MB-415, cell line MDAMB415",75.9 µM
same,GI50,"[1]; MDA-MB-436, MDAMB436 cell line, censored GI50 values",380 µM
same,GI50,"[1]; MDA-MB-436, cell line MDAMB436",380 µM
same,GI50,"[1]; MDA-MB-453, MDAMB453 cell line, censored GI50 values",501 µM
same,GI50,"[1]; MDA-MB-453, cell line MDAMB453",501 µM
same,GI50,[1]; [21],0.891 µM
same,GI50,"[1]; MDA-MB-468, cell line MDAMB468",0.891 µM
same,GI50,"[1]; SK-BR-3, cell line SKBR3",5010 µM
same,GI50,"[1]; SUM52PE, cell line SUM52PE",3.55 µM
same,GI50,[1]; [22],28.8 µM
same,GI50,"[1]; SUM149PT, cell line SUM149PT",28.8 µM
same,GI50,"[1]; SUM185PE, cell line SUM185PE",501 µM
same,GI50,[1]; [23],708 µM
same,GI50,[1]; [24],107 µM
same,GI50,"[1]; SUM-159-PT, cell line SUM159PT",107 µM
same,GI50,"[1]; T47D, cell line T47D",9.33 µM
same,GI50,"[1]; UACC-812, cell line UACC812",339 µM
same,GI50,"[1]; UACC-893, cell line UACC893",2090 µM
same,GI50,"[1]; ZR-75-1, cell line ZR751",501 µM
same,GI50,"[1]; ZR-75-30, cell line ZR7530",5010 µM
same,GI50,"[1]; ZR-75B, cell line ZR75B",562 µM
same,GI50,[1]; cell line 600MPE,468 µM
same,GI50,[1]; cell line HCC2185,407 µM
same,GI50,[1]; cell line HCC3153,5.75 µM
same,GI50,[1]; cell line LY2,1510 µM
same,GI50,[1]; cell line MDAMB134V,1070 µM
same,GI50,[1]; cell line MDAMB175V,617 µM
same,GI50,[1]; cell line SUM1315MO,708 µM
same,Subtype specificity,[2],Basal
C#Cc1cccc(Nc2ncnc3cc(OCCOC)c(OCCOC)cc23)c1 [Erlotinib],GI50,[1]; [3],13.2 µM
same,GI50,"[1]; AU565, cell line AU565",13.2 µM
same,GI50,"[1]; BT-20, BT20 cell line, censored GI50 values",2 µM
same,GI50,"[1]; BT-20, cell line BT20",2 µM
same,GI50,[1]; [4],10.5 µM
same,GI50,"[1]; BT-474, cell line BT474",10.5 µM
same,GI50,"[1]; BT-483, cell line BT483",66.1 µM
same,GI50,[1]; [5],41.7 µM
same,GI50,"[1]; BT-549, cell line BT549",41.7 µM
same,GI50,"[1]; CAMA-1, cell line CAMA1",66.1 µM
same,GI50,"[1]; HCC38, cell line HCC38",66.1 µM
same,GI50,[1]; [6],1.74 µM
same,GI50,"[1]; HCC70, cell line HCC70",1.74 µM
same,GI50,[1]; [7],37.2 µM
same,GI50,"[1]; HCC202, cell line HCC202",37.2 µM
same,GI50,"[1]; HCC1143, cell line HCC1143",57.5 µM
same,GI50,[1]; [8],7.59 µM
same,GI50,"[1]; HCC1187, cell line HCC1187",7.59 µM
same,GI50,[1]; [9],39.8 µM
same,GI50,"[1]; HCC1395, cell line HCC1395",39.8 µM
same,GI50,[1]; [10],10.7 µM
same,GI50,"[1]; HCC1419, cell line HCC1419",10.7 µM
same,GI50,[1]; [11],17.8 µM
same,GI50,"[1]; HCC1428, cell line HCC1428",17.8 µM
same,GI50,[1]; [12],6.46 µM
same,GI50,"[1]; HCC1500, cell line HCC1500",6.46 µM
same,GI50,[1]; [13],4.27 µM
same,GI50,"[1]; HCC1806, cell line HCC1806",4.27 µM
same,GI50,[1]; [14],38.9 µM
same,GI50,"[1]; HCC1937, cell line HCC1937",38.9 µM
same,GI50,[1]; [15],3.09 µM
same,GI50,"[1]; HCC1954, cell line HCC1954",3.09 µM
same,GI50,[1]; [16],23.4 µM
same,GI50,[1]; [17],31.6 µM
same,GI50,[1]; [18],33.1 µM
same,GI50,"[1]; MCF7, cell line MCF7",66.1 µM
same,GI50,"[1]; MDA-MB-157, cell line MDAMB157",50.1 µM
same,GI50,[1]; [19],3.09 µM
same,GI50,[1]; [20],39.8 µM
same,GI50,"[1]; MDA-MB-231, cell line MDAMB231",39.8 µM
same,GI50,"[1]; MDA-MB-361, cell line MDAMB361",64.6 µM
same,GI50,"[1]; MDA-MB-436, cell line MDAMB436",55 µM
same,GI50,"[1]; MDA-MB-453, cell line MDAMB453",44.7 µM
same,GI50,[1]; [21],21.4 µM
same,GI50,"[1]; MDA-MB-468, cell line MDAMB468",21.4 µM
same,GI50,"[1]; SK-BR-3, SKBR3 cell line, censored GI50 values",15.8 µM
same,GI50,"[1]; SK-BR-3, cell line SKBR3",15.8 µM
same,GI50,"[1]; SUM52PE, SUM52PE cell line, censored GI50 values",31.6 µM
same,GI50,"[1]; SUM52PE, cell line SUM52PE",31.6 µM
same,GI50,[1]; [22],2 µM
same,GI50,"[1]; SUM149PT, cell line SUM149PT",2 µM
same,GI50,"[1]; SUM185PE, cell line SUM185PE",66.1 µM
same,GI50,"[1]; SUM225CWN, SUM225CWN cell line, censored GI50 values",7.08 µM
same,GI50,"[1]; SUM225CWN, cell line SUM225CWN",7.08 µM
same,GI50,[1]; [23],7.41 µM
same,GI50,[1]; [24],11.7 µM
same,GI50,"[1]; SUM-159-PT, cell line SUM159PT",11.7 µM
same,GI50,"[1]; T47D, cell line T47D",50.1 µM
same,GI50,"[1]; UACC-812, UACC812 cell line, censored GI50 values",12.3 µM
same,GI50,"[1]; UACC-812, cell line UACC812",12.3 µM
same,GI50,"[1]; UACC-893, UACC893 cell line, censored GI50 values",12.3 µM
same,GI50,"[1]; UACC-893, cell line UACC893",12.3 µM
same,GI50,"[1]; ZR-75-1, cell line ZR751",66.1 µM
same,GI50,"[1]; ZR-75B, cell line ZR75B",66.1 µM
same,GI50,[1]; cell line 600MPE,52.5 µM
same,GI50,[1]; cell line HCC2185,23.4 µM
same,GI50,[1]; cell line HCC3153,31.6 µM
same,GI50,[1]; cell line LY2,33.1 µM
same,GI50,[1]; cell line MDAMB134V,66.1 µM
same,GI50,[1]; cell line MDAMB175V,3.09 µM
same,GI50,[1]; cell line SUM1315MO,7.41 µM
same,Subtype specificity,[2],Basal
